Measured values reported in article PMC11995724, “Antibiotic target discovery by integrated phenotypic and activity-based profiling of electrophilic fragments” (Cell chemical biology, 2025).

Assay: in vitro
Settings: human, hek293t cells

| Structure (SMILES) | viability at 48 h, 25 µM [%] |
| --- | --- |
| COc1ccc(C=C(C#N)C(=O)Nc2cccc(C(F)(F)F)c2)cc1 [8-A03, 2-cyano-3-(4-methoxyphenyl)-N-[3-(trifluoromethyl)phenyl]prop-2-enamide] | 72.2 |
| N#CC(=Cc1cccs1)C(=O)Nc1ccc(C(=O)O)cc1 [8-A04, 4-[2-cyano-3-(thiophen-2-yl)prop-2-enamido]benzoic acid] | 71.7 |
| COc1ccc(C=C(C#N)C(=O)Nc2ccccc2)cc1 [8-A05, 2-cyano-3-(4-methoxyphenyl)-N-phenylprop-2-enamide] | 76.8 |
| Cc1ccc(C=C(C#N)C(=O)Nc2ccc(N3CCOCC3)cc2)s1 [8-A06, 2-cyano-3-(5-methylthiophen-2-yl)-N-[4-(morpholin-4-yl)phenyl]prop-2-enamide] | 76.2 |
| CCOc1ccc(C=C(C#N)C(=O)Nc2cccc3ncccc23)cc1 [8-A07, 2-cyano-3-(4-ethoxyphenyl)-N-(quinolin-5-yl)prop-2-enamide] | 60.7 |
| N#CC(=Cc1cnn(-c2ccc(Cl)cc2)c1)C(=O)NC1CCCCC1 [8-A08, 3-[1-(4-chlorophenyl)-1H-pyrazol-4-yl]-2-cyano-N-cyclohexylprop-2-enamide] | 60.6 |
| N#CC(=Cc1ccc2c(c1)OCO2)C(=O)NCc1ccccc1 [8-A09, 3-(1,3-dioxaindan-5-yl)-N-benzyl-2-cyanoprop-2-enamide] | 85.6 |
| Cc1cc(C)c(NC(=O)C(C#N)=Cc2cc(F)ccc2F)c(C)c1 [8-A10, 2-cyano-3-(2,5-difluorophenyl)-N-(2,4,6-trimethylphenyl)prop-2-enamide] | 2.85 |
| Cc1cccc(C)c1NC(=O)C(C#N)=Cc1ccc(OC(F)F)cc1 [8-A11, 2-cyano-3-[4-(difluoromethoxy)phenyl]-N-(2,6-dimethylphenyl)prop-2-enamide] | 56.3 |
| N#CC(=Cc1cc(F)ccc1F)C(=O)Nc1cc(Cl)ccc1Cl [8-A12, 2-cyano-N-(2,5-dichlorophenyl)-3-(2,5-difluorophenyl)prop-2-enamide] | 61 |
| Cc1c(C=C(C#N)C(=O)Nc2ccccc2F)cc(C#N)n1C [8-A13, 2-cyano-3-(5-cyano-1,2-dimethyl-1H-pyrrol-3-yl)-N-(2-fluorophenyl)prop-2-enamide] | 83.9 |
| COc1ccc(-c2n[nH]cc2C=C(C#N)C(=O)Nc2ccccc2)cc1 [8-A14, 2-cyano-3-[3-(4-methoxyphenyl)-1H-pyrazol-4-yl]-N-phenylprop-2-enamide] | 76.6 |
| N#CC(=Cc1ccccc1)C(=O)Nc1ccccc1-c1ccccc1 [8-A15, N-{[1,1'-biphenyl]-2-yl}-2-cyano-3-phenylprop-2-enamide] | 90.1 |
| Cc1ccccc1NC(=O)C(C#N)=Cc1cc(C)n(C2CC2)c1C [8-A16, 2-cyano-3-(1-cyclopropyl-2,5-dimethyl-1H-pyrrol-3-yl)-N-(2-methylphenyl)prop-2-enamide] | 47.1 |
| COc1ccc(C=C(C#N)C(=O)Nc2c(C)cccc2C)cc1OC [8-A17, 2-cyano-3-(3,4-dimethoxyphenyl)-N-(2,6-dimethylphenyl)prop-2-enamide] | 82.9 |
| COc1cc(C=C(C#N)C(=O)Nc2c(C)cc(C)cc2C)cc(OC)c1 [8-A18, 2-cyano-3-(3,5-dimethoxyphenyl)-N-(2,4,6-trimethylphenyl)prop-2-enamide] | 26.3 |
| COc1cccc(NC(=O)C(C#N)=Cc2ccc([N+](=O)[O-])o2)c1 [8-A19, 2-cyano-N-(3-methoxyphenyl)-3-(5-nitrofuran-2-yl)prop-2-enamide] | 72.4 |
| CCc1ccc(NC(=O)C(C#N)=Cc2cccn2C)cc1 [8-A20, 2-cyano-N-(4-ethylphenyl)-3-(1-methyl-1H-pyrrol-2-yl)prop-2-enamide] | 58.7 |

| Structure (SMILES) | viability at 48 h, 25 µM [%] |
| --- | --- |
| COc1cc(Cl)c(C)cc1NC(=O)C(C#N)=CC=Cc1ccccc1 [8-A21, N-(4-chloro-2-methoxy-5-methylphenyl)-2-cyano-5-phenylpenta-2,4-dienamide] | 82 |
| CC(C)NC(=O)C(C#N)=Cc1cccc(O)c1 [8-A22, 2-cyano-3-(3-hydroxyphenyl)-N-(propan-2-yl)prop-2-enamide] | 67.3 |
| N#CC(=Cc1ccc2c(c1)OCCO2)C(=O)Nc1nccs1 [8-B03, 2-cyano-3-(2,3-dihydro-1,4-benzodioxin-6-yl)-N-(1,3-thiazol-2-yl)prop-2-enamide] | 115 |
| COCC(C)n1c(C)cc(C=C(C#N)C(=O)NS(C)(=O)=O)c1C (centres unmarked) [8-B04, 2-cyano-N-methanesulfonyl-3-[1-(1-methoxypropan-2-yl)-2,5-dimethyl-1H-pyrrol-3-yl]prop-2-enamide] | 94.8 |
| N#CC(=Cc1ccc(O)c(O)c1)C(=O)Nc1ccccc1F [8-B05, 2-cyano-3-(3,4-dihydroxyphenyl)-N-(2-fluorophenyl)prop-2-enamide] | 92.9 |
| N#CC(=Cc1cccc(F)c1F)C(=O)NCc1ccccc1 [8-B06, N-benzyl-2-cyano-3-(2,3-difluorophenyl)prop-2-enamide] | 27.1 |
| N#CC(=Cc1ccc(Cl)c(Cl)c1)C(=O)NCc1ccccc1 [8-B07, N-benzyl-2-cyano-3-(3,4-dichlorophenyl)prop-2-enamide] | 105 |
| N#CC(=Cc1ccc([N+](=O)[O-])c(Cl)c1)C(=O)NC1CCCCC1 [8-B08, 3-(3-chloro-4-nitrophenyl)-2-cyano-N-cyclohexylprop-2-enamide] | 0.92 |
| CCOc1ccccc1C=C(C#N)C(=O)Nc1ccc(Cl)cc1 [8-B09, N-(4-chlorophenyl)-2-cyano-3-(2-ethoxyphenyl)prop-2-enamide] | 82.9 |
| Cc1cc(=O)[nH]c(-c2cccc(NC(=O)C(C#N)=Cc3ccco3)c2)n1 [8-B10, 2-cyano-3-(furan-2-yl)-N-[3-(4-methyl-6-oxo-1,6-dihydropyrimidin-2-yl)phenyl]prop-2-enamide] | 57.8 |
| N#CC(=Cc1ccccc1Cl)C(=O)Nc1ccc(Cl)cc1 [8-B11, 3-(2-chlorophenyl)-N-(4-chlorophenyl)-2-cyanoprop-2-enamide] | 113 |
| Cc1ccccc1N1C(=O)CSC1=C(C#N)C(=O)N1CCCCC1 [8-B12, 2-[3-(2-methylphenyl)-4-oxo-1,3-thiazolidin-2-ylidene]-3-oxo-3-(piperidin-1-yl)propanenitrile] | 113 |
| Cc1ccsc1C=C(C#N)C(=O)N1CCN(c2ccccc2)CC1 [8-B13, 3-(3-methylthiophen-2-yl)-2-(4-phenylpiperazine-1-carbonyl)prop-2-enenitrile] | 92.4 |
| N#CC(=Cc1c(Cl)cccc1Cl)C(=O)NCCc1ccccc1 [8-B14, 2-cyano-3-(2,6-dichlorophenyl)-N-(2-phenylethyl)prop-2-enamide] | 2 |
| COc1ccccc1NC(=O)C(C#N)=Cc1ccc(C)s1 [8-B15, 2-cyano-N-(2-methoxyphenyl)-3-(5-methylthiophen-2-yl)prop-2-enamide] | 103 |
| N#CC(=Cc1ccc(O)cc1)C(=O)NCc1ccc(Cl)cc1 [8-B16, N-[(4-chlorophenyl)methyl]-2-cyano-3-(4-hydroxyphenyl)prop-2-enamide] | 102 |
| Cc1cc(C)c(NC(=O)C(C#N)=Cc2cccnc2)c(C)c1 [8-B17, 2-cyano-3-(pyridin-3-yl)-N-(2,4,6-trimethylphenyl)prop-2-enamide] | 122 |
